Source: article PMC11435065, “Inhibition of P-Glycoprotein Asymmetrically Alters the In Vivo Exposure Profile of SGC003F: A Novel Guanylate Cyclase Stimulator” (Pharmaceuticals, 2024)
Where two headings read alike, the source gives them in different places.

Test: Tissue distribution of SGC003F in rats with or without tariquidar
Type: in vivo
Settings: rat; for AUC(0-t) / Kp: male; for AUC(0-t): SD; for Kp: Sprague-Dawley
Description: A total of 45 male SD rats were randomly divided into 15 groups, with 3 rats in each group; each set of 5 groups constituted a larger group. The first large group served as the control group: SGC003F (p.o., 1 mg/kg) + blank solvent; the second large group was designated as experimental Group I: SGC003F (p.o., 1 mg/kg) + tariquidar (i.v., 7.5 mg/kg); the third group was labeled as Group II: SGC003F (p.o., 1 mg/kg) + tariquidar (p.o., 15 mg/kg). The rats in each group were euthanized at 0.5 h, 1 h, 2 h, 4 h, and 24 h after administration. Blood samples were collected by cardiac puncture and placed in heparin tubes. The plasma was harvested by centrifugation at 2500× g for 10 min at 4 °C. Major organs (brain, heart, liver, kidney, and small intestine) were collected and homogenized with saline at a ratio of 1:4 (w/v). All samples were stored at −40 °C for further analysis.
The tissue plasma partition coefficient at individual time point (KP1) was calculated by the ratio of the tissue concentration to the plasma concentration at each time point, as described in Equation (3) KP1 = Ctissue/Cplasma(3)
The overall tissue plasma partition coefficient (KP2) was calculated by the ratio of the area under the tissue drug-time curve to the area under the plasma drug–time curve, as described in Equation (4) KP2 = AUC(0-t, tissue)/AUC(0-t, plasma)(4)

[1] = SGC003F p.o. 1 mg/kg, tariquidar i.v. 7.5 mg/kg
[2] = SGC003F p.o. 1 mg/kg, tariquidar p.o. 15 mg/kg

- AUC(0-t) (plasma, po, 1 mg/kg, SGC003F p.o. 1 mg/kg, with tariquidar i.v. 7.5 mg/kg, read-out: AUC(0–24h), Plasma): 7540 ± 1280 ng·h/mL
- AUC(0-t) (plasma, po, 1 mg/kg, SGC003F p.o. 1 mg/kg, with tariquidar p.o. 15 mg/kg, read-out: AUC(0–24h), Plasma): 10200 ng·h/mL
- AUC(0-t) (small intestine, po, 1 mg/kg, SGC003F p.o. 1 mg/kg, single, read-out: AUC(0–24h), Intestine): 2530 ± 988 ng·h/mL
- AUC(0-t) (small intestine, po, 1 mg/kg, SGC003F p.o. 1 mg/kg, with tariquidar i.v. 7.5 mg/kg, read-out: AUC(0–24h), Intestine): 5630 ± 1360 ng·h/mL
- AUC(0-t) (small intestine, po, 1 mg/kg, SGC003F p.o. 1 mg/kg, with tariquidar p.o. 15 mg/kg, read-out: AUC(0–24h), Intestine): 10400 ng·h/mL
- Kp (brain, po, 1 mg/kg, SGC003F p.o. 1 mg/kg, single, read-out: KP2 (tissue/plasma AUC), Brain): 0.002
- Kp (kidney, oral, SGC003F p.o. 1 mg/kg, with tariquidar i.v. 7.5 mg/kg, read-out: KP2, Kidney): 1.05 ± 0.14
- Kp (kidney, oral, SGC003F p.o. 1 mg/kg, with tariquidar p.o. 15 mg/kg, read-out: KP2, Kidney): 1.16 ± 0.26
- Kp (kidney, po, 1 mg/kg, SGC003F p.o. 1 mg/kg, single, read-out: KP2 (tissue/plasma AUC), Kidney): 1.11 ± 0.24
- Kp (liver, oral, SGC003F p.o. 1 mg/kg, with tariquidar i.v. 7.5 mg/kg, read-out: KP2, Liver): 0.86 ± 0.11
- Kp (liver, oral, SGC003F p.o. 1 mg/kg, with tariquidar p.o. 15 mg/kg, read-out: KP2, Liver): 0.95 ± 0.07
- Kp (liver, po, 1 mg/kg, SGC003F p.o. 1 mg/kg, single, read-out: KP2 (tissue/plasma AUC), Liver): 0.91 ± 0.09
- Kp (small intestine, oral, SGC003F p.o. 1 mg/kg, with tariquidar i.v. 7.5 mg/kg, read-out: KP2, Intestine): 0.74 ± 0.06
- Kp (small intestine, oral, SGC003F p.o. 1 mg/kg, with tariquidar p.o. 15 mg/kg, read-out: KP2, Intestine): 1.01 ± 0.19
- Kp (small intestine, po, 1 mg/kg, SGC003F p.o. 1 mg/kg, single, read-out: KP2 (tissue/plasma AUC), Intestine): 0.47 ± 0.11
- Brain-to-plasma concentration ratio relative to control group (4 h, SGC003F p.o. 1 mg/kg with tariquidar (oral or i.v.)): twice
- Increase of SGC003F concentration in the brain versus SGC003F alone (4 h, SGC003F p.o. 1 mg/kg, tariquidar intravenously 7.5 mg/kg): 3.2 fold
- Increase of SGC003F concentration in the brain versus SGC003F alone (4 h, SGC003F p.o. 1 mg/kg, tariquidar orally 15 mg/kg): 4.2 fold
- Concentration of SGC003F in the brain (24 h, all groups (alone or with tariquidar)): below the limit of quantification
- AUC(0–24h), Brain, Ratio 1 (with Tar (i.v.)/single) [1]: 2.4
- AUC(0–24h), Heart, Ratio 1 (with Tar (i.v.)/single) [1]: ~1.3
- AUC(0–24h), Intestine, Ratio 1 (with Tar (i.v.)/single) [1]: 2.2
- AUC(0–24h), Kidney, Ratio 1 (with Tar (i.v.)/single) [1]: ~1.3
- AUC(0–24h), Liver, Ratio 1 (with Tar (i.v.)/single) [1]: ~1.3
- AUC(0–24h), Plasma, Ratio 1 (with Tar (i.v.)/single) [1]: 1.4
- KP2, Brain, Ratio 1 (with Tar (i.v.)/single) [1]: 2.0
- KP2, Intestine, Ratio 1 (with Tar (i.v.)/single) [1]: 1.6
- AUC(0–24h), Heart, Ratio 2 (with Tar (p.o.)/single) [2]: 2.0
- AUC(0–24h), Kidney, Ratio 2 (with Tar (p.o.)/single) [2]: 2.0
- AUC(0–24h), Liver, Ratio 2 (with Tar (p.o.)/single) [2]: 2.0
- AUC(0–24h), Plasma, Ratio 2 (with Tar (p.o.)/single) [2]: 2.0
- KP2, Brain, Ratio 2 (with Tar (p.o.)/single) [2]: 2.0
- KP2, Heart, Ratio 2 (with Tar (p.o.)/single) [2]: 1.0
- KP2, Intestine, Ratio 2 (with Tar (p.o.)/single) [2]: 2.1
- KP2, Kidney, Ratio 2 (with Tar (p.o.)/single) [2]: 1.0
- KP2, Liver, Ratio 2 (with Tar (p.o.)/single) [2]: 1.0
SMILES: COC(=O)Nc1c(N)nc(-c2nn(Cc3sccc3F)c3ncc(F)cc23)nc1N [SGC003F]
